Read-outs that look alike come from different tables or passages of the source. Marks after values point to notes of the source that are not given here.
Tests used:
Hep 3B cells [1] = experiment: MTT cell viability assay, Hep 3B cells (serum-free DMEM)
Source text: (§1) Human hepatoma cell lines Hep G2 and Hep 3 were chosen as the in vitro models of hepatocytes and hepatoma, respectively.

[2] = MTT cell viability assay, Hep G2 cells (serum-free DMEM); settings: human, Hep G2 cells, Cell viability
Source text: as §1

Hep G2 cells = experiment: as above; settings: Homo sapiens
Source text: as §1

Hep 3B cells [3] = experiment: Cell cycle determination by flow cytometry, Hep 3B; type: cell-based, human; settings: cell line not given
[4] = no lovastatin 72 hr, then taxol 10 nM 72 hr

SMILES: CC(=O)O[C@H]1C(=O)[C@@]2(C)[C@H]([C@H](OC(=O)c3ccccc3)[C@]3(O)C[C@H](OC(=O)[C@H](O)[C@@H](NC(=O)c4ccccc4)c4ccccc4)C(C)=C1C3(C)C)[C@]1(OC(C)=O)CO[C@@H]1C[C@@H]2O [Taxol, paclitaxel]
- Cell viability (Hep 3B cells [1]; [4]): 78.0 ± 0.4^c % of control
- Ratio, inhibition (%) Hep 3B/inhibition (%) Hep G2 (Hep 3B cells [1]; [4]): 0.6**
- Ratio, inhibition (%) Hep 3B/inhibition (%) Hep G2 (Hep 3B cells [1]; taxol 2 nM alone, 96 hr, Table 10): 0.3**
- Ratio, inhibition (%) Hep 3B/inhibition (%) Hep G2 (Hep 3B cells [1]; taxol 2 nM, 48 hr): 1.3*
- Ratio, inhibition (%) Hep 3B/inhibition (%) Hep G2 (Hep 3B cells [1]; taxol 2 nM, 72 hr): 0.6*
- Ratio, inhibition (%) Hep 3B/inhibition (%) Hep G2 (Hep 3B cells [1]; taxol 5 nM alone, 96 hr, Table 10): 0.4**
- Ratio, inhibition (%) Hep 3B/inhibition (%) Hep G2 (Hep 3B cells [1]; taxol 5 nM, 48 hr): 0.3**
- Ratio, inhibition (%) Hep 3B/inhibition (%) Hep G2 (Hep 3B cells [1]; taxol 5 nM, 72 hr): 0.2**
- Ratio, inhibition (%) Hep 3B/inhibition (%) Hep G2 (Hep 3B cells [1]; taxol 10 nM alone, 96 hr, Table 10): 0.5***
- Ratio, inhibition (%) Hep 3B/inhibition (%) Hep G2 (Hep 3B cells [1]; taxol 10 nM, 48 hr): 0.4***
- Ratio, inhibition (%) Hep 3B/inhibition (%) Hep G2 (Hep 3B cells [1]; taxol 10 nM, 72 hr): 0.2***
- Ratio, inhibition (%) Hep 3B/inhibition (%) Hep G2 (Hep 3B cells [1]; taxol 20 nM, 48 hr): 0.3***
- Ratio, inhibition (%) Hep 3B/inhibition (%) Hep G2 (Hep 3B cells [1]; taxol 20 nM, 72 hr): 0.2***
- Ratio, inhibition (%) Hep 3B/inhibition (%) Hep G2 (Hep 3B cells [1]; taxol 50 nM, 48 hr): 0.3***
- Ratio, inhibition (%) Hep 3B/inhibition (%) Hep G2 (Hep 3B cells [1]; taxol 50 nM, 72 hr): 0.4***
- Ratio, inhibition (%) Hep 3B/inhibition (%) Hep G2 (Hep 3B cells [1]; taxol 100 nM, 48 hr): 0.4**
- Ratio, inhibition (%) Hep 3B/inhibition (%) Hep G2 (Hep 3B cells [1]; taxol 100 nM, 72 hr): 0.6**
- Ratio, inhibition (%) Hep 3B/inhibition (%) Hep G2 (Hep 3B cells [1]; taxol 200 nM, 48 hr): 0.5**
- Ratio, inhibition (%) Hep 3B/inhibition (%) Hep G2 (Hep 3B cells [1]; taxol 200 nM, 72 hr): 0.6**
- Ratio, inhibition (%) Hep 3B/inhibition (%) Hep G2 (Hep 3B cells [1]; taxol 500 nM, 48 hr): 0.6**
- Ratio, inhibition (%) Hep 3B/inhibition (%) Hep G2 (Hep 3B cells [1]; taxol 500 nM, 72 hr): 0.8**
- Ratio, inhibition (%) Hep 3B/inhibition (%) Hep G2 (Hep 3B cells [1]; taxol 1000 nM, 48 hr): 0.5**
- Ratio, inhibition (%) Hep 3B/inhibition (%) Hep G2 (Hep 3B cells [1]; taxol 1000 nM, 72 hr): 0.8**
- viability at 48 h, 2 nM ([2]; no lovastatin 48 hr, then taxol 2 nM 48 hr): 92.2 ± 1.5%
- viability at 48 h, 5 nM ([2]; no lovastatin 48 hr, then taxol 5 nM 48 hr): 61.5 ± 2.2%
- viability at 48 h, 10 nM ([2]; no lovastatin 48 hr, then taxol 10 nM 48 hr): 57.9 ± 3.3%
- viability at 48 h, 2 nM ([2]; no lovastatin 72 hr, then taxol 2 nM 48 hr): 85.1 ± 1.9%
- viability at 72 hr, 2 nM ([2]; no lovastatin 72 hr, then taxol 2 nM 72 hr): 77.7 ± 2.6%
- viability at 48 h, 5 nM ([2]; no lovastatin 72 hr, then taxol 5 nM 48 hr): 64.2 ± 1.2%
- viability at 72 h, 5 nM ([2]; no lovastatin 72 hr, then taxol 5 nM 72 hr): 65.8 ± 1.3%
- viability at 48 h, 10 nM ([2]; no lovastatin 72 hr, then taxol 10 nM 48 hr): 60.5 ± 3.2%
- viability at 72 h, 10 nM [2, 4]: 63.6 ± 8.4%
- viability at 96 h, 2 nM ([2]; taxol 2 nM alone, Table 10): 72.4 ± 6.9%
- viability at 48 h, 2 nM ([2]; taxol 2 nM, 48 hr): 94.5 ± 5.4%
- viability at 48 h, 2 nM ([2]; taxol 2 nM, 48 hr, Table 9): 88 ± 1.9%
- viability at 72 h, 2 nM ([2]; taxol 2 nM, 72 hr): 89.2 ± 2.6%
- viability at 72 h, 2 nM ([2]; taxol 2 nM, 72 hr, Table 9): 89.2 ± 2.6%
- viability at 96 h, 2 nM ([2]; taxol 2 nM): 66.6 ± 3.5%
- viability at 120 h, 2 nM ([2]; taxol 2 nM, 120 hr): 65.1 ± 0.9%
- viability at 96 h, 5 nM ([2]; taxol 5 nM alone, Table 10): 49.3 ± 9.9%
- viability at 48 h, 5 nM ([2]; taxol 5 nM, 48 hr): 72.9 ± 4%
- viability at 48 h, 5 nM ([2]; taxol 5 nM, 48 hr, Table 9): 74.7 ± 2.3%
- viability at 72 h, 5 nM ([2]; taxol 5 nM, 72 hr): 63.7 ± 2.3%
- viability at 72 h, 5 nM ([2]; taxol 5 nM, 72 hr, Table 9): 63.7 ± 2.3%
- viability at 96 h, 5 nM ([2]; taxol 5 nM): 36.2 ± 5.5%
- viability at 120 h, 5 nM ([2]; taxol 5 nM, 120 hr): 33.8 ± 0.6%
- viability at 96 h, 10 nM ([2]; taxol 10 nM alone, Table 10): 24.8 ± 2.5%
- viability at 48 h, 10 nM ([2]; taxol 10 nM, 48 hr): 64.2 ± 3.8%
- viability at 48 h, 10 nM ([2]; taxol 10 nM, 48 hr, Table 9): 58.1 ± 8.1%
- viability at 72 h, 10 nM ([2]; taxol 10 nM, 72 hr): 39 ± 0.5%
- viability at 72 h, 10 nM ([2]; taxol 10 nM, 72 hr, Table 9): 39 ± 0.5%
- viability at 96 h, 10 nM ([2]; taxol 10 nM): 22.7 ± 4.1%
- viability at 120 h, 10 nM ([2]; taxol 10 nM, 120 hr): 19 ± 3.4%
- viability at 48 h, 20 nM ([2]; taxol 20 nM, 48 hr): 53.5 ± 1.1%
- viability at 72 h, 20 nM ([2]; taxol 20 nM, 72 hr): 35.4 ± 3.6%
- viability at 48 h, 50 nM ([2]; taxol 50 nM, 48 hr): 47 ± 2.3%
- viability at 72 h, 50 nM ([2]; taxol 50 nM, 72 hr): 33.9 ± 3.7%
- viability at 48 h, 100 nM ([2]; taxol 100 nM, 48 hr): 34.6 ± 9.1%
- viability at 72 h, 100 nM ([2]; taxol 100 nM, 72 hr): 19.5 ± 4.6%
- viability at 48 h, 200 nM ([2]; taxol 200 nM, 48 hr): 35.4 ± 5.5%
- viability at 72 h, 200 nM ([2]; taxol 200 nM, 72 hr): 15.6 ± 5.8%
- viability at 48 h, 500 nM ([2]; taxol 500 nM, 48 hr): 29.1 ± 4.2%
- viability at 72 h, 500 nM ([2]; taxol 500 nM, 72 hr): 11 ± 5%
- viability at 48 h, 1000 nM ([2]; taxol 1000 nM, 48 hr): 15 ± 3.9%
- viability at 72 h, 1000 nM ([2]; taxol 1000 nM, 72 hr): 9.9 ± 4.9%
- IC50 (Hep G2 cells; HepG2, 48 h, read-out: IC50 (cell viability), 48 hr, Table 8): 40.8 ± 7 nM
- IC50 (Hep G2 cells; HepG2, 48 h, read-out: IC50 (cell viability), 48 hr, Table 9): 12.4 nM
- IC50 (Hep G2 cells; HepG2, 72 h, read-out: IC50 (cell viability), 72 hr, Table 8): 7.8 ± 1 nM
- IC50 (Hep G2 cells; HepG2, 72 h, read-out: IC50 (cell viability), 72 hr, Table 9): 7.8 nM
- IC50 (Hep G2 cells; HepG2, 96 h, read-out: IC50 (cell viability), 96 hr): 3.6 nM
- IC50 (Hep G2 cells; HepG2, 120 h, read-out: IC50 (cell viability), 120 hr): 3.5 nM
- cell cycle arrest stage (Hep 3B cells [3]): G2/M arrest

Source: patent US20020173538A1, “Method for sensitizing cancer cells to cancer therapies with a mevalonate-reducing compound” (priority 2000, published 2002)
